Compound | melting point [°C]
O=C(O)CNC(=O)Nc1ccc([N+](=O)[O-])cc1 | 213 to 214
CCC(COC)Nc1nc(C)nc(N2CCc3cc(OC)cc(Cl)c32)c1C=O (centres undefined) | 150 to 153
CC(C)C[C@H](NC(=O)CCSC(=O)c1ccccc1)C(=O)O | 99 to 101
C=CC(=O)NCc1ccc(CC(=O)OCC)cc1 | 93 to 95
CCCc1c(OCCCCCCc2ccc(OC)c(OC)c2Cl)ccc(C(=O)O)c1O | 107 to 108
COc1ccc(Cn2ncc3c4c(cnc32)CN(S(=O)(=O)c2ccccc2)CC4)cc1 | 136 to 138
CCS(=O)(=O)c1cccnc1S(=O)(=O)NC(C)(C)C | 58 to 63
O=S1(=O)Cc2cc(Cl)ccc2Oc2ccccc21 | 159 to 166
CC(=O)N1CCN=C1Nc1cc(C)nn1-c1cccc2ccccc12 | 194 to 195
Nc1ccc(C(O)C(COc2ccccc2)N2CCC(Cc3ccccc3)CC2)cc1 (centres undefined) | 146 to 147
Cc1ccc(S(=O)(=O)n2ccc3cccnc32)cc1 | 136 to 138
COc1cc2c(cc1C(F)(F)F)N(C(=O)Nc1ccc(Sc3cccnc3)nc1)CC2 | 208 to 210
CN(C)c1ccc(C2(Oc3ccccc3)OC(=O)c3ccc(N(C)C)cc32)cc1 (centres undefined) | 158 to 159
CCCCCCCCCCCCNC(=O)CCNc1cccc(O)c1 | < 40
O=C(O)Cn1c(Cc2ccccc2)ccc(NS(=O)(=O)CCc2ccccc2)c1=O | 165 to 167
COc1ccc(-c2nc3cnncc3[nH]2)c(OC)c1 | 268
CN1CCN(c2cccc3c2C[C@H](NC(=O)c2ccc(N4CCCCC4)cc2)CO3)CC1 | 178 to 180
Cc1cc(C(O)(C(F)(F)F)C(F)(F)F)cc(C)c1OCC(=O)NCc1ccccc1 | 142 to 144
Cc1nc(-c2ncn3c2c(C)nc2ccccc23)no1 | 192 to 193
O=c1[nH]ncc2[nH]c(-c3ccc(OC(F)F)c(OC4CC4)c3)c(COC3CCC3)c12 | 95 to 100
COc1ccc(OC)c(C(Nc2ccc(C(=N)N)cc2)C(=O)O)c1 (racemic) | 310
Nc1ccc(S(=O)(=O)Nc2ccc(S(N)(=O)=O)cc2)cc1Cl | 197 to 198
COc1ccc(-n2nc(C)c3c(C(=O)Nc4c(C)ccnc4C)cc(C)nc32)cc1 | 224 to 227
Cc1cc(F)ccc1C(=Cc1nnnn1C)c1ccc(F)cc1C | 120 to 125
CCOC(=O)c1sc2cc(OCc3cccnc3)ccc2c1Sc1ccccc1 | 94 to 95

Compound | melting point [°C]
CC1=C(C(=O)OCCN(C)Cc2ccccc2)C(c2ccccc2C#N)c2c(ccnc2OC(C)C)N1 (centres undefined) | 120 to 122
Cc1nc(C(=O)NN)c2n1-c1ccc(Cl)cc1C(c1ccccc1F)=NC2 | 235 to 237
Cc1cc(CCCCCOc2ccc(C3=NCCO3)cc2C(F)F)on1 | 80 to 89
CCC(C)NC(=O)C1=C(C(=O)Nc2cc(OC3CCCC3)c(Cl)cc2F)CCCC1 (centres undefined) | 174 to 175
CC1=NNC(C)=C(C(=O)NN)C1c1ccccc1 (centres undefined) | 156
CCOC(=O)c1cn(-c2nccs2)c2nc(Cl)cc(C(F)(F)F)c2c1=O | 184 to 185
O=c1[nH]ncc2ccc(OCC3CO3)cc12 (centres undefined) | 164 to 166
Cc1c(Cl)c2c(c3oc4ccccc4c(=O)c13)CC(C(=O)O)O2 (centres undefined) | 284 to 287
COc1ccccc1OCC1SCCN1C(=S)CC(C)=O (centres undefined) | 89 to 91
O=C(c1ccc(Cl)cc1)c1ccc(OC(F)(F)F)cc1 | 74.5 to 75
CCC(=O)COc1cc(N)c(Cl)cc1C(=O)NCCN(CC)CC | 103 to 104
Cc1ccc(C(=O)Nc2nc(-c3ccccc3)c(-c3nc4ccccc4c(=O)n3-c3ccc(Cl)cc3)s2)cc1 | > 275
O=C1N(Cc2ccc(-c3ccno3)cc2)c2ccccc2C12COc1cc3c(cc12)OCCO3 (centres undefined) | 209 to 212
COC(=O)Cc1ccc(C(=O)c2ccccc2)n1C | 96 to 98
O=c1[nH]c2ccc(CCCNCC[C@H]3CC[C@H](c4ccc(F)cc4)CC3)cc2o1 | 99 to 109
c1ccc(N=c2sc3ccccc3s2)cc1 | 67 to 68
Nc1cc(-c2cccnc2)cc2nc(-c3ccccc3)nn12 | 201 to 203
CNC(=O)[C@H](Cc1cncn1C)NC(=O)C(Cc1cccc2ccccc12)Cc1cccc2ccccc12 | 250 to 252
O=C1c2ccccc2C(=O)c2[nH]c(-c3ccccc3)nc21 | > 260
COC(=O)c1ccc(-n2c(C)nc3ccccc32)cc1 | 153 to 154
Cc1ccc(C(=O)NC(NC(=S)Nc2ccc(F)cc2F)C(F)(F)F)cc1 (centres undefined) | 202 to 204
CCN(CC)C(C(C(=O)C(C)(C)C)n1cncn1)C(Cl)(Cl)Cl (centres undefined) | 103 to 110
CC(=O)Oc1c(Cc2ccccc2)ccc2c1ccn2C | 56 to 58
OCc1c(Cl)nc2ccccc2c1-c1ccc(F)cc1 | 159 to 160
Oc1ccc(-c2nnc(CCCCCc3ccccc3)o2)cc1 | 118 to 123

Compound | melting point [°C]
COc1nc(NC(=S)NS(=O)(=O)c2cccnc2)nc(OC)n1 | 158 to 160
COC(=O)c1ccccc1Nc1c(Cl)cccc1Cl | 100 to 103
COc1ccc2c(c1)N(C1CN3CCC1CC3)c1ccccc1S2 (centres undefined) | 158
O=C(CS(=O)(=O)c1ccc(Cl)cc1C(=O)O)c1ccccc1 | 170 to 171
ClCc1nnc2n1-c1ccccc1C(c1ccccc1Cl)=NC2 | 186 to 188
Cc1cn([C@H]2CC(N=[N+]=[N-])[C@@H](COC(=O)C(C)(C)CC(=O)N[C@@H](Cc3ccccc3)[C@H](O)C(=O)N3CSC(C)(C)[C@H]3C(=O)NC(C)(C)C)O2)c(=O)[nH]c1=O (some centres undefined) | 95 to 97
CN(C)c1cccc(-c2nc3c(N[C@H]4[C@@H](C(N)=O)[C@@H]5C=C[C@H]4C5)c(Br)cnc3[nH]2)c1 | 220 to 221
CC(C)(Cc1ccc2oc(-c3nc(C(C)(C)C)cs3)cc2c1)C(=O)O | 155 to 157
O=C1CC(O)CN1S(=O)(=O)c1ccc(N2CCCCC2)cc1 (centres undefined) | 158 to 159
COc1nc(C)c(C(C)OC(=O)CCC(=O)O)cc1NC(=O)N1CCN(c2cc(C)cc(C)c2)CC1 (centres undefined) | 138 to 140
CN(c1ccncc1)n1cccc1CO | 145 to 148
CN(C(=O)OC(C)(C)C)c1ccc(-c2ncn(-c3ccc(OC(F)(F)F)cc3)n2)cc1 | 125 to 128
O=C(O)c1cn(C2COC2)c2c(F)c(F)c(F)cc2c1=O | 203 to 206
CCOC(=O)/C=C/c1ccc(OC(C)=O)c(Cl)c1 | 59 to 61
CCOC(=O)C(CCCc1ccccc1)(NC(C)=O)C(=O)OCC | 76 to 77
Oc1cccc2c1CCC(N(CCCF)CCc1cccs1)C2 (centres undefined) | 105 to 109
CCCCCCCCc1ccc(N(c2ccc(CCCCCCCC)cc2)C2(c3c(C)n(CC)c4ccccc34)OC(=O)c3ccccc32)cc1 (centres undefined) | 106 to 108
C[Si](C)(C)C#Cc1ccc(C#N)cc1[N+](=O)[O-] | 81 to 82
CC(C)(C)OC(=O)N1C[C@@H](O)C[C@H]1C(=O)OCc1ccccc1 | 72 to 73
NS(=O)(=O)NC(=O)NCCCCC1CCSS1 (centres undefined) | 123 to 125
CN1C(=O)[C@H](NC(=O)CCNc2ccccc2)N=C(c2ccccc2)c2ccccc21 | 218 to 221
CC(C)c1nc2ccccc2c(-c2ccc(F)cc2)c1CO | 132 to 134
Cc1cc(C)nc(NCC(O)CO)n1 (centres undefined) | 124 to 127
CCOC(=O)C=C1CC(c2cccc(C3(c4ccc(OC(F)F)cc4)N=C(N)N(C)C3=O)c2)C1 (centres undefined) | 78 to 80
O=C1c2ccccc2C(=O)N1CC(=CBr)c1ccccc1 | 128 to 129

Compound | melting point [°C]
Cc1ccc(Cn2c(=O)c3c(Cl)cc(Cl)cc3n(Cc3ccccc3)c2=O)cc1 | 166 to 169
CSc1ncc(CO)c(Nc2ccccc2)n1 | 142 to 143
COC(=O)/C=C/c1ccc(Br)s1 | 60 to 62
CCCCC#CC(C)(O)c1ccc(-c2ccc(F)cc2)cc1 (centres undefined) | 62
COc1ccc([C@@H]2Sc3ccccc3N(CCN(C)C)C(=O)[C@@H]2OC(=O)Nc2ccc(F)cc2)cc1 (relative stereo) | 153 to 154
CC(CSC(C)C(=O)O)C(=O)O (centres undefined) | 78 to 80
COc1cc2c3ccc(OC)c(OC)c3n(Cc3ccc(C(F)(F)F)cc3)c2cc1OC | 145 to 146
CC(C)(C)[Si](C)(C)OCCn1nc(CO)cc1CO | 82 to 83
CCOCCOCCOc1ccc(C(=O)OC)cc1F | 33 to 36.5
CN1C(C(=O)Nc2nc3c(s2)CCCC3)=C(O)c2ccc3ccccc3c2S1(=O)=O | 255 to 257
O=C1N[C@H](Cc2ccc(C(F)(F)F)c(F)c2)[C@H](c2ccc(F)cc2)O1 (racemic) | 122 to 123
O=C(NCCc1ccc(O)cc1)c1ccc2n1Cc1ccccc1N(C(=O)CSc1ccc(Br)cc1)C2 | 168 to 169
O=C1c2ccccc2C(=O)N1CCCCc1ccco1 | 61 to 63
NC(=O)CN1C[C@@H](c2ccccc2)CC1=O | 108
CC(C)NC(=N)NC(=N)NOCCCOc1ccc(OC(F)(F)F)cc1 | 154 to 155
CCN(CC)CCOc1ccc(Nc2ncc3c(n2)N(C)C(=O)N(c2c(Cl)cccc2Cl)C3)cc1 | 123 to 124
CCNc1cc(-c2c[nH]cn2)ccn1 | 135 to 137
CC(C)(C)NS(=O)(=O)c1ccccc1OC(F)(F)F | 137
CC1Cc2cc(S(=O)(=O)n3cc(-c4ccccc4)[nH]c3=O)ccc2N1C(=O)c1ccc([N+](=O)[O-])cc1 (centres undefined) | 168 to 172
O=C(Cc1ccccc1)OC1c2ccccc2C(=O)N1c1ccc2ccc(Cl)nc2n1 (centres undefined) | 222 to 224
O=C1C(=c2[nH]c(=c3[nH]c(=C4C(=O)c5ccccc5C4=O)c4ccccc34)c3ccccc23)C(=O)c2ccccc21 | > 300
COC1=C(OC)C(OC)C(C=CC(=O)O)(OC)C=C1C (centres undefined) | 117 to 118
CN1CCN(c2nn(S(=O)(=O)c3ccccc3)c3cc(F)ccc23)CC1 | 159 to 161
O=C(Nc1cc(F)c(N2CC(=O)N(COC3CCCCO3)C2)c(F)c1)OCc1ccccc1 (centres undefined) | 116 to 118
